Where a name gives a salt, the structure may show the parent alone.
What was measured:
[1] = tested on: Acanthamoeba polyphaga strain Ros cysts; assay: Acanthamoeba contact lens disinfectant challenge test assay; type: cell-based; conditions: 25 ppm
Protocol: Acanthamoeba polyphaga strain Ros were used in this study. Trophozoites were maintained at 30° C. in an axenic broth medium composed of 20.0 g Biosate™ (Becton Dickinson, United Kingdom), 5.0 g glucose, 0.3 g KH2PO4, 10 μg vitamin B12 and 15.0 mg L-methionine per litre of deionized water. The pH was adjusted to 6.5-6.6 with 1 M NaOH before autoclaving at 121° C. for 12 minutes. Penicillin and streptomycin were added to a final concentration of 150 μ/ml before use.
Cysts were prepared from trophozoite cultures using the axenic medium supplemented with 50 mM MgCl2. The encystment medium was inoculated with approximately 2×10^5 /ml trophoxoites for culture at 30° C. in a shaking incubator (100 rpm) for 7 days. Cells were enumerated using haemocytometer counting.
The challenge test assay protocol, as described by R. Hughes and S. Kilvington, Comparison of Hydrogen Peroxide Contact Lens Disinfection Systems and Solutions Against Acanthamoeba Polyphaga, Antimicrob. Agents Chemother. 45: 2038-2043, (2001), is set forth in detail below. The number of surviving organisms was calculated as described by L. J. Reed and H. Muench, A Simple Method for Estimating Fifty Percent Endpoints, Am. J. Hyg., 27: 493-497, (1938). Statistical analysis of the data was by One Way Analysis Of Variance (ANOVA).
1. Fifty ml polypropylene centrifuge tubes were aged overnight with 15 ml of disinfectant solution, i.e., ReNue™ 02 (Bausch & Lomb, Rochester, N.Y.). The tubes were then drained, the disinfectant solution discarded, and refilled with 10 ml of fresh disinfectant solution for testing.
2. To a flat-bottomed, 96 well microtitre plate having 8 columns labelled “A” through “H”, 180 μl of neutralizer, i.e., 0.1 percent Tween™ 80 (Baker, Inc., Phillipsburg, N.J.) in one-quarter strength Ringer's solution for biguanide based disinfectants, was added to the outer wells of columns A and H. 180 μl of one-quarter strength Ringer's solution was then added to the remaining inner wells of columns B through G.
3. Amoebae were adjusted to 5×10^6 /ml in one-quarter strength Ringer's solution and 100 μl (5×10^5) was added to 10 ml of disinfectant (5×10^4 /ml) or saline control.
4. At time intervals of 0, 1, 2, 3, 4, 6 and 24 hours:
i. vortexed tubes 5 seconds;
ii. in quadruplet, removed 20 μl (1000 cells) and added to neutralizer wells for the given time-point (i.e., column A, rows 9-12) and made serial 10-fold dilutions across the microtitre plate (i.e., to column D, rows 9-12); and
iii. repeated for each time point.
5. One drop of live E. coli from 3 ml pastette (25 μl of approximately 5×10^7 bacteria/ml) was then added to each well.
6. The plate was then incubated at 32° C. for up to 7 days.
7. The plate was inspected daily for 7 days for the presence of amoebal growth, either trophozoite replication or excystment and trophozoite replication, in the wells.
8. The number of surviving organisms was then estimated at each time interval by Reed and Muench computation and set forth below in Table 3.

Structure (SMILES)	melting point [°C]	Amoebae Log Kill, Cysts ([1]; 1 Hr.) [Log]	Amoebae Log Kill, Cysts ([1]; 4 Hr.) [Log]
CCCCCCCCCCCCCC(=O)OCCC[N+](C)(C)CCC [Compound 9, N-myristoyloxypropyl-N,N-dimethyl-N-propylammonium iodide]		3.69	4
CCCCCCCCCCCCCC(=O)OCCC[N+](C)(C)CCCCCC [Compound 12, N-myristoyloxypropyl-N,N-dimethyl-N-hexylammonium iodide]		3.54	3.54
CCCCCCCCCCCCCC(=O)OCCC[N+](C)(C)CC [Compound 8, N-myristoyloxypropyl-N,N-dimethyl-N-ethylammonium iodide]		1	4
CCCCCCCC(=O)OCCC[N+](C)(C)C (as salt: iodide) [Compound 2, N-capryloyloxypropyl-N,N,N-trimethylammonium iodide]	107 to 109		
CCCCCCCCCCCCCCCC(=O)OCCC[N+](C)(C)C [Compound 6, N-palmitoyloxypropyl-N,N,N-trimethylammonium iodide]		0.46	3.54
CCCCCCCCCCCCCC(=O)OCCC[N+](C)(C)CCCCC [Compound 11, N-myristoyloxypropyl-N,N-dimethyl-N-pentylammonium iodide]		3.69	3.69

The next lines start with results.

melting point [°C]	Structure (SMILES)	Amoebae Log Kill, Cysts ([1]; 1 Hr.) [Log]	Amoebae Log Kill, Cysts ([1]; 4 Hr.) [Log]
118 to 120	CCCCCCCCCCCCCC(=O)OCCC[N+](C)(C)C (as salt: iodide) [Compound 5, N-myristoyloxypropyl-N,N,N-trimethylammonium iodide]		
103 to 104	CCCCCCCCCCCCCC(=O)OCCC[N+](C)(C)CCCCCCCCCC (as salt: iodide) [Compound 13, N-myristoyloxypropyl-N-decyl-N,N-dimethylammonium iodide]		
116 to 118	CCCCCCCCCCCCCCCCCC(=O)OCCC[N+](C)(C)C (as salt: iodide) [Compound 7, N-stearoyloxypropyl-N,N,N-trimethylammonium iodide]		
121 to 124	CCCCCCCCCCCC(=O)OCCC[N+](C)(C)C (as salt: iodide) [Compound 4, N-lauroyloxypropyl-N,N,N-trimethylammonium iodide]		
78 to 79	CCCCCCCCCCCCCC(=O)OCCC[N+](C)(C)CCCCCC (as salt: iodide) [Compound 12, N-myristoyloxypropyl-N,N-dimethyl-N-hexylammonium iodide]		

— patent US20040115160A1, “Quaternary ammonium esters for disinfection and preservation” (priority 2002, published 2004)
